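Test compounds were applied to cells in 96-well plates for 48 hours at 5 doses. GI50 = concentration required for 50% inhibition of growth.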 The source made the active and inactive calls. Cut-off read from the data, not from the text of the source: active = GI50 up to about 1.1 µM and inactive = higher.
Key:
Test in all cases: inhibition of tumour cell growth, NCI panel, 48 h
[1] = test system: MDA-N
[2] = test system: NCI/ADR-RES
[3] = test system: HOP-18
[4] = test system: DMS-114
[5] = test system: DMS-273
[6] = test system: DLD-1
[7] = test system: SNB-78
[8] = test system: M19-MEL

Structure (SMILES)	GI50 [1]	GI50 [2]	GI50 [3]	GI50 [4]	GI50 [5]	GI50 [6]	GI50 [7]	GI50 [8]
CC(Cc1ccc(O)cn1)(NC(=O)c1ccccc1)C(=O)O (stereo not drawn)	> 100 µM (inactive)	> 100 µM (inactive)						
CN(C)CC1CCC/C(=C\c2ccc(Cl)c(Cl)c2)C1=O (stereo not drawn)	3.42 µM (inactive)	3.05 µM (inactive)						
COc1cccc2c1C(=O)c1c(O)c3c(c(O)c1C2=O)C[C@@](O)(C(=O)CO)C[C@@H]3OC1CC2C(OCN3CN2COC2C(C)OC(O[C@H]4C[C@](O)(C(=O)CO)Cc5c(O)c6c(c(O)c54)C(=O)c4c(OC)cccc4C6=O)CC23)C(C)O1 (stereo partly drawn)	0.0923 µM (active)	0.251 µM (active)						
O=C1C2CCCCC2C(=O)N1n1c(Cc2ccccc2)n[nH]c1=O (stereo not drawn)	> 100 µM (inactive)	> 100 µM (inactive)						
O=C(CSCC(=O)N/N=C\c1cc(Br)cc(Br)c1O)N/N=C\c1cc(Br)cc(Br)c1O		29.4 µM (inactive)						
CN(C)c1ccc(/C=C(\NC(=O)c2ccccc2)C(=O)Nc2cccc(C(=O)NCCCO)c2)cc1	> 100 µM (inactive)	> 100 µM (inactive)						
CCn1c(SCC(=O)NNC(=S)Nc2ccc(F)cc2)nc2ccccc2c1=O	> 100 µM (inactive)	> 100 µM (inactive)						
N=C(N)SC(c1ccccc1)c1ccccc1	13.6 µM (inactive)	17.2 µM (inactive)						
O=C1CC2C=CC1C2CO (stereo not drawn)			> 100 µM (inactive)	> 100 µM (inactive)	> 100 µM (inactive)	> 100 µM (inactive)	> 100 µM (inactive)	> 100 µM (inactive)
COc1ccccc1CCc1cc(OC)c(OC)c(OC)c1			> 100 µM (inactive)	41.6 µM (inactive)	39.6 µM (inactive)	61.5 µM (inactive)	43 µM (inactive)	48.3 µM (inactive)
CC(C)C1=CC23CCC4C(C)(C(=O)O)CCCC4(C)C2CC1C1C(=O)N(c2ccccc2N2C(=O)C4C5CC6C7(C)CCCC(C)(C(=O)O)C7CCC6(C=C5C(C)C)C4C2=O)C(=O)C13 (stereo not drawn)	5 µM (inactive)							
C[N+]1([O-])C2CCC1CC(OC(=O)C(CO)c1ccccc1)C2 (stereo not drawn)	> 100 µM (inactive)	> 33.4 µM (inactive)						
COCCOCOc1ccc(OCOCCOC)c2c1C(=O)c1ccccc1C2=O			77.1 µM (inactive)	3.19 µM (inactive)	49.1 µM (inactive)	26.3 µM (inactive)	> 63.1 µM (inactive)	16.7 µM (inactive)
O=c1c2cccnc2[nH]c2ccc3scnc3c12	> 10 µM (inactive)	8.91 µM (inactive)						
CC(=O)Nc1ccc(/C=C(\NC(=O)c2ccccc2)c2nc3ccc4c(c3[nH]2)C(=O)c2ccccc2C4=O)cc1			11 µM (inactive)	17.9 µM (inactive)	32.7 µM (inactive)	13.8 µM (inactive)	58.9 µM (inactive)	78.3 µM (inactive)
CCOC(=O)c1c(N)sc2c1C(C(=O)OCC)CC2 (stereo not drawn)	> 100 µM (inactive)							

Structure (SMILES)	GI50 [1]	GI50 [2]	GI50 [3]	GI50 [4]	GI50 [5]	GI50 [6]	GI50 [7]	GI50 [8]
O=C(CNC(=O)OCc1ccccc1)Oc1ccccc1			> 100 µM (inactive)	> 100 µM (inactive)	> 100 µM (inactive)	> 100 µM (inactive)	> 100 µM (inactive)	> 100 µM (inactive)
COc1ccc2c(c1)C(=O)CC(N)C2 (stereo not drawn)	> 100 µM (inactive)	> 100 µM (inactive)						
Clc1ccc2nc3c(c(-c4ccccc4)nn3-c3ccccc3)c(-c3ccccc3)c2c1	> 100 µM (inactive)	> 100 µM (inactive)						
CC1(C)CC(=O)C2=C(C1)NC(SCC(=O)O)=C(C#N)C2c1ccc(Br)cc1 (stereo not drawn)	> 100 µM (inactive)	> 100 µM (inactive)						
CC(C)(C)C1CC[C@H](O)[C@H]([C@@H](O)CC2CC(=O)N(c3ccccc3)C(=O)C2)C1 (stereo partly drawn)	> 100 µM (inactive)	67.9 µM (inactive)						
CC(C)(C)OC(=O)C1CC[C@@H](CC(=O)Oc2ccc([N+](=O)[O-])cc2)N1 (stereo partly drawn)	> 100 µM (inactive)	> 100 µM (inactive)						
Cc1ncc([N+](=O)[O-])n1CCN(C)CCCCn1ccnc1[N+](=O)[O-]	> 100 µM (inactive)							
CC(=O)OCCOCNC(=S)N/N=C(\C)c1cccs1			> 100 µM (inactive)	> 100 µM (inactive)	> 100 µM (inactive)	> 100 µM (inactive)	> 100 µM (inactive)	> 100 µM (inactive)
O=C1/C(=C\c2cccc(Oc3ccccc3)c2)SC(c2ccccc2)N1c1ccccc1Cl (stereo not drawn)	20 µM (inactive)	27.9 µM (inactive)						
C[C@]12CC[C@@H]3c4ccc(OC(=O)c5ccccc5)cc4CC[C@H]3[C@@H]1CCC2OC(=O)c1cccc2c(=O)c3ccccc3[nH]c12 (stereo partly drawn)	11.1 µM (inactive)	18 µM (inactive)						
N#Cc1c(-c2ccccc2)cc(-c2cccs2)c(C#N)c1N			0.0134 µM (active)	> 10 µM (inactive)	> 100 µM (inactive)	> 100 µM (inactive)	> 100 µM (inactive)	> 10 µM (inactive)
COC(=O)/C=C1\C(CO[Si](C)(C)C(C)(C)C)OC(n2cc(C)c(=O)n(C)c2=O)C1O[Si](C)(C)C(C)(C)C (stereo not drawn)	> 100 µM (inactive)	> 100 µM (inactive)						
COc1ccc(-c2c(C#N)c(O)n(NS(=O)(=O)c3ccc(C)cc3)c(=O)c2C#N)cc1	77.8 µM (inactive)	61.9 µM (inactive)						
COc1ccc(-c2ccccc2)c2[nH]c3c(c12)CCNC3=O					> 100 µM (inactive)	> 100 µM (inactive)	> 100 µM (inactive)	> 100 µM (inactive)
O=C1c2cc(Cl)ccc2N=C(NCCCl)C2CSCN12 (stereo not drawn)	> 100 µM (inactive)	> 100 µM (inactive)						
